Consider 3 compounds from patent US20090233965A1, “Alkyl Esters Of Cyclic Amino Alcohols With Muscarinic M3 Receptor Antagonist Activity, Useful For Treating E.G. Chronic Bronchial Obstruction, Asthma And Overactive Bladder” (priority 2006, published 2009).

pIC50: −log10 of the molar value. Like-named read-outs stand apart in the source and are kept apart here.

This assay addresses human muscarinic acetylcholine M3 receptor (M3-ACh) (Homo sapiens, UniProt P20309). Kind of assay: M3 Receptor Activity Assay: competition binding of [3H]N-methyl scopolamine, SPA format. The note with it: for IC50: competition binding of [3H]NMS at 0.2 nM to CHO-K1 cell membranes expressing human M3 receptor, 16 hours at room temperature, read-out: pIC50 (converted).

human muscarinic acetylcholine M3 receptor (M3-ACh), sequence (P20309 whole entry): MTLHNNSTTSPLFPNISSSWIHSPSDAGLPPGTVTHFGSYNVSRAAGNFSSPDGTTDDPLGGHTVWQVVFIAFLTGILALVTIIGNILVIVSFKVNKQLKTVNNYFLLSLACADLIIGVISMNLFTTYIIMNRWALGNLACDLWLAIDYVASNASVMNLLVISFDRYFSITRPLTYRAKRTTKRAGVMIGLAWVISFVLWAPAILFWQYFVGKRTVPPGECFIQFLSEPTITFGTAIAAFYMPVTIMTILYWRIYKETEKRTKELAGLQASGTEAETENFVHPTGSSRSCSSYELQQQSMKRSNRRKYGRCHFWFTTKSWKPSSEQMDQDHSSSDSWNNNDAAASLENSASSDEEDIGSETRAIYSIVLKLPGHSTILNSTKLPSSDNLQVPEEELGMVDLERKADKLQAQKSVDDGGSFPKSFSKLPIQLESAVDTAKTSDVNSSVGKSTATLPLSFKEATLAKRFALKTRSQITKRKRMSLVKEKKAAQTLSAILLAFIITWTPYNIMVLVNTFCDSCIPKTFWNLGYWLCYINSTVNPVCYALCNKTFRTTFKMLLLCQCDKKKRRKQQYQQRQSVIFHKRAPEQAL
Experimental: The assay was conducted in a final volume of 200 μL, in the presence of 1% (v/v) dimethyl sulphoxide (DMSO). Total binding of [^3H]NMS was determined in the absence of competing compound and non-specific binding of [3H]NMS was determined in the presence of 1 μM atropine. The plates were incubated for 16 hours at room temperature and then read on Wallac Microbeta™ using a normalised ^3H protocol.

Take `CC(C(=O)OC1CC[N+](C)(C)CC1)(c1ccccc1)C1CC1` (stereo not drawn) [Example 3, 4-[(2-Cyclopropyl-2-phenylpropanoyl)oxy]-1,1-dimethylpiperidinium iodide]: the negative-log IC50 (pIC50) is 9.40.

As for `Cc1ccc(C(C)(C(=O)OC2CC[N+](C)(C)CC2)C2CCCC2)s1` (stereo not drawn) [Example 9, 4-{[2-Cyclopentyl-2-(5-methyl-2-thienyl)propanoyl]oxy}-1,1-dimethylpiperidinium iodide], the IC50 was 79.4 pM. On the same count and under the same terms, the result for `CC(C(=O)OC1CC[N+](C)(C)CC1)(c1ccc(Cl)cc1)C1CCCC1` (stereo not drawn) [Example 19, 4-{[2-(4-Chlorophenyl)-2-cyclopentylpropanoyl]oxy}-1,1-dimethylpiperidinium iodide] reads 200 pM.

Usually pIC50 stands for the IC50 on a negative log10 scale, so that one unit is a factor of ten.
